These are literature values, as cited in US20130004545A1, “SLOW RELEASE PHARMACEUTICAL COMPOSITIONS OF ILOPERIDONE” (LUPIN LIMITED, priority 2009, published 2013).

The conditions of series [1]: for t1/2: metabolite of iloperidone.
For a further series, the target named is 5-HT2A receptors (Homo sapiens, UniProt P28223).
For a further series, the system named is plasma proteins. The following applies: administered orally.

5-HT2A receptors, sequence (P28223 whole entry): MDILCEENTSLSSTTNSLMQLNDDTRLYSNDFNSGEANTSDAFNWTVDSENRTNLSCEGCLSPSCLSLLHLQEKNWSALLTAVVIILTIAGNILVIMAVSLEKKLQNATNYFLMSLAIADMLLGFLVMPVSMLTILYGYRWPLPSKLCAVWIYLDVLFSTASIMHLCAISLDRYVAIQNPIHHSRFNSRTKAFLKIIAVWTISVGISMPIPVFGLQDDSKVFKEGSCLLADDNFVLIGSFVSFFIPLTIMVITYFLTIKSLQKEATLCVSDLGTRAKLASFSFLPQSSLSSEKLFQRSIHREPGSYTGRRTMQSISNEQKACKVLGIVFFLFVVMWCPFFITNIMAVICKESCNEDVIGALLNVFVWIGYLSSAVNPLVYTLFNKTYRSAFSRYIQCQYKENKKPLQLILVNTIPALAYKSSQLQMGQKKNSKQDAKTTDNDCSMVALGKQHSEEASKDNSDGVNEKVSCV

With `COc1cc(C(C)O)ccc1OCCCN1CCC(c2noc3cc(F)ccc23)CC1` (stereo not drawn) [Example P88], in series [1], the t1/2 is listed as 25.6 h. The “Plasma level relative to Iloperidone” value in series [1] (metabolite plasma level, reported) was “approximately 1.5 times that of Iloperidone”. Also, the tmax in series [1] (metabolite, after oral administration of parent active ingredient) is 6 h.
As for `COc1cc(C(=O)O)ccc1OCCCN1CCC(c2noc3cc(F)ccc23)CC1` [Example P95, 4-[3-[4-(6-fluoro-1,2,-benzisoxazol-3-yl)-1-piperidinyl]propoxy]-3-methoxy-benzoic acid], at 5-HT2A receptors, the receptor affinity result was “affinity for only 5-HT2A receptors”. Moreover, in series [1], the t1/2 was 25.6 h.
In the case of `COc1cc(C(C)=O)ccc1OCCCN1CCC(c2noc3cc(F)ccc23)CC1` [Iloperidone], the “binding to plasma proteins” value with plasma proteins is listed as “highly bound to plasma proteins”.
